# Experimental data: publication PMC6891444, “Immune Checkpoint PD-1/PD-L1 CTLA-4/CD80 are Blocked by Rhus verniciflua Stokes and its Active Compounds” (Molecules, 2019)
# Biological target: T1, CTLA-4/CD80 interaction (Homo sapiens, UniProt P16410)
# T1 construct: purchased BPS Bioscience #71149 (CTLA-4); #71114 (biotinylated CD80)
# T1 sequence (P16410 37-162 limits assumed): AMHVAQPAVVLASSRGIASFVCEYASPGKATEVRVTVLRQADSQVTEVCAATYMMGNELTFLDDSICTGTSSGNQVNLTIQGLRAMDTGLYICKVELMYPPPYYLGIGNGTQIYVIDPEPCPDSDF
# Assay: CTLA-4/CD80 competitive ELISA (Inhibitor Screening Assay Kit)
# Assay type: binding
# Details: mean of three independent replicates, read-out: IC50, CTLA-4/CD80 blocking effect
# Description: Competitive ELSIA was performed using a PD–1/PD-L1 or CTLA-4/CD80 Inhibitor Screening Assay Kit, according to the supplier’s instructions. An aliquot of 1 μg/mL recombinant human PD-L1 (BPS Bioscience, #71104) or CTLA-4 (BPS Bioscience, #71149) were coated onto a 96-well plate overnight. Plates were washed with phosphate-buffered saline (PBS) containing 0.1% Tween (PBS-T), blocked for 1 h at room temperature with PBS-T containing 2% (w/v) bovine serum albumen, and washed again. After washing, vehicle or test samples were added, and the reaction continued for 1 h. As a positive control, PD-L1 inhibitor C1 or anti-CTLA-4 neutralizing antibody were used. Biotinylated hPD–1 (BPS Bioscience, #71109) or biotinylated hCD80 (BPS Bioscience, #71114) was added to each well, and plates were incubated for 2 h at room temperature. After three washes with PBS-T, diluted streptavidin-horseradish peroxidase (HRP) was added to each well, and plates were reacted for 1 h while shaking at low speed. After the reaction, plates were washed three times with PBS-T, and HRP substrates A and B were added. Relative chemiluminescence was measured on a SpectraMax L Luminometer (Molecular Devices, San Jose, California, USA) and expressed as the relative binding activity. The results were normalized to the relative percentage of the vehicle control group. Half-maximal inhibitory concentration (IC50) was calculated using Prism “log[inhibitor] vs. normalized response” equation.
row,Structure (SMILES),IC50 [µM]
1,"O=C(O)c1ccc(O)c(O)c1 [Compound 2, protocatechuic acid]",4.51
2,"O=C1c2c(O)cc(O)cc2OC(c2ccc(O)c(O)c2)C1O (stereo not shown) [Compound 5, taxifolin]",35.5
3,"O=C(O)/C=C/c1ccc(O)c(O)c1 [Compound 19, caffeic acid]",10

# Biological target: T2, PD-1/PD-L1 interaction (Homo sapiens, UniProt Q9NZQ7)
# T2 construct: purchased BPS Bioscience #71104 (PD-L1); #71109 (biotinylated PD-1)
# Assay: PD-1/PD-L1 competitive ELISA (Inhibitor Screening Assay Kit)
# Assay type: binding
# Details: mean of three independent replicates, read-out: IC50, PD-1/PD-L1 blocking effect
# Description: Competitive ELSIA was performed using a PD–1/PD-L1 or CTLA-4/CD80 Inhibitor Screening Assay Kit, according to the supplier’s instructions. An aliquot of 1 μg/mL recombinant human PD-L1 (BPS Bioscience, #71104) or CTLA-4 (BPS Bioscience, #71149) were coated onto a 96-well plate overnight. Plates were washed with phosphate-buffered saline (PBS) containing 0.1% Tween (PBS-T), blocked for 1 h at room temperature with PBS-T containing 2% (w/v) bovine serum albumen, and washed again. After washing, vehicle or test samples were added, and the reaction continued for 1 h. As a positive control, PD-L1 inhibitor C1 or anti-CTLA-4 neutralizing antibody were used. Biotinylated hPD–1 (BPS Bioscience, #71109) or biotinylated hCD80 (BPS Bioscience, #71114) was added to each well, and plates were incubated for 2 h at room temperature. After three washes with PBS-T, diluted streptavidin-horseradish peroxidase (HRP) was added to each well, and plates were reacted for 1 h while shaking at low speed. After the reaction, plates were washed three times with PBS-T, and HRP substrates A and B were added. Relative chemiluminescence was measured on a SpectraMax L Luminometer (Molecular Devices, San Jose, California, USA) and expressed as the relative binding activity. The results were normalized to the relative percentage of the vehicle control group. Half-maximal inhibitory concentration (IC50) was calculated using Prism “log[inhibitor] vs. normalized response” equation. All results are presented as the mean of three independent biological replicates. * p < 0.05, ** p < 0.01, *** p < 0.001, compared with the vehicle control group.
# T2 sequence (Q9NZQ7 19-239 limits assumed): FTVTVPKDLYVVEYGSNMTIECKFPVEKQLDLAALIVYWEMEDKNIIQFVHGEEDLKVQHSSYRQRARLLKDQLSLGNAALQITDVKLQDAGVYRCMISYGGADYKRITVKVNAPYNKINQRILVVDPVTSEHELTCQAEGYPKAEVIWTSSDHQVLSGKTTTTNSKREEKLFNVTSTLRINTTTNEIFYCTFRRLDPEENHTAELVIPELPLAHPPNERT
row,Structure (SMILES),IC50 [µM]
1,"O=C1C[C@@H](c2ccc(O)c(O)c2)Oc2cc(O)cc(O)c21 [Compound 7, eriodictyol]",0.04
2,"O=c1c(O)c(-c2ccc(O)c(O)c2)oc2cc(O)ccc12 [Compound 9, fisetin]",0.04
3,"O=C1C[C@@H](c2ccc(O)cc2)Oc2cc(O)ccc21 [Compound 13, liquiritigenin]",11.8
4,"O=c1c(O)c(-c2ccc(O)c(O)c2)oc2cc(O)cc(O)c12 [Compound 18, quercetin]",5.71
